Experiments:
Format in all cases: in vivo
[1] = system: human skin; assay: Skin colour L* by chromameter after topical treatment of a human subject's arm; conditions: 4 weeks of treatment, 1% topical twice a day; vehicle 67.28
Procedure: (§1) All the phospholipids were dissolved in an ethanol/propylene glycol vehicle (70/30, v/v) at the concentration of 1% of solid phospholipid powder.
(§2) Preparations 1, 2 and 3 were tested for their ability to induce skin darkening in one human subject, with informed consent. One volunteer, Fitzpatrick skin type II, with no history of skin cancer, no skin disease or unusual skin reaction, and no topical treatments on the study sites (the upper and lower parts of the arm) within a period of 30 days before enrollment and during the treatment period, was treated with preparations 1-3. Different preparations were used in four different studies. Two studies used the upper part of the arm, and two other studies used the lower part of the arm, which were treated twice a day for six to eight weeks with 10 μl of test phospholipid solutions (1%) in ethanol: propylene glycol (70:30, v/v) vehicle, or with vehicle alone. No other products were used and no sun exposure occurred during the treatment period.
(§3) Skin darkening was evaluated visually, and in some cases also by using a chromameter (ChromaMeter, Minolta, Osaka, Japan) and DRS (see Nguyen B. C., Br. J. Dermatol. 2003, 149(2):332-40). Measurements were taken at 4 and 8 weeks. […]

[2] = system: human skin; assay: Visual evaluation of skin darkening after topical treatment of a human subject's arm; parameters: key to visual skin darkening, 2 WEEKS / visual skin darkening, 4 WEEKS / visual skin darkening, 8 WEEKS / visual skin darkening, 8 WKS + 1 WK / visual skin darkening, 8 WKS + 2 WKS / visual skin darkening, 8 WKS + 3 WKS: ++: Obvious visible tan-like color; +: Weak visible tan-like color; 0: No visible tan-like color; conditions: for visual skin darkening, 2 WEEKS: one volunteer, 2 weeks of treatment; for visual skin darkening, 8 WEEKS: 8 weeks of treatment; for induction of visible skin darkening (in words): 1% topical twice a day, six to eight weeks; for visual skin darkening, 8 WKS + 1 WK: 8 weeks topical treatment followed by 1 week without any treatment; for visual skin darkening, 8 WKS + 2 WKS: 8 weeks topical treatment followed by 2 weeks without any treatment; for visual skin darkening, 8 WKS + 3 WKS: 8 weeks topical treatment followed by 3 weeks without any treatment
Procedure: All the phospholipids were dissolved in an ethanol/propylene glycol vehicle (70/30, v/v) at the concentration of 1% of solid phospholipid powder. Preparations 1, 2 and 3 were tested for their ability to induce skin darkening in one human subject, with informed consent. One volunteer, Fitzpatrick skin type II, with no history of skin cancer, no skin disease or unusual skin reaction, and no topical treatments on the study sites (the upper and lower parts of the arm) within a period of 30 days before enrollment and during the treatment period, was treated with preparations 1-3. Different preparations were used in four different studies. Two studies used the upper part of the arm, and two other studies used the lower part of the arm, which were treated twice a day for six to eight weeks with 10 μl of test phospholipid solutions (1%) in ethanol: propylene glycol (70:30, v/v) vehicle, or with vehicle alone. No other products were used and no sun exposure occurred during the treatment period. Skin darkening was evaluated visually, and in some cases also by using a chromameter (ChromaMeter, Minolta, Osaka, Japan) and DRS (see Nguyen B. C., Br. J. Dermatol. 2003, 149(2):332-40). Measurements were taken at 4 and 8 weeks. The DRS instrument was assembled using a tungsten halogen light source (Model LS- 1, Ocean Optics, Dunedin, Fla., USA), Miniature Fiber Optic Spectrometer (Model USB2000, Ocean Optics, Dunedin, Fla., USA) and custom-designed bifurcated fiber optic probe (Multimode Fiber Optics Inc, East Hanover, N.J., USA). The scale used for reporting visual skin darkening is defined in the Table 1. The visual tan-like color was somewhat stronger on the upper arm, relative to lower arm, possibly because of slightly darker baseline color of the lower arm than the upper arm. The visual results are summarized in Table 2, including the fading time of the darker color, when treatment was terminated at 8 weeks and skin color was followed for additional three weeks.

[3] = system: human skin; assay: Melanin deposition by DRS after topical treatment of a human subject's arm; conditions: 4 weeks of treatment, 1% topical twice a day; vehicle 1.248
Procedure: as §1, §2, §3

[4] = 1% in ethanol/propylene glycol (70/30), 10 μl twice a day, topical, arm
[5] = after termination of 8 weeks topical treatment

| Substance | L* (Chromameter) [1] | visual skin darkening, 2 WEEKS [2, 4] | visual skin darkening, 8 WEEKS [2, 4] | induction of visible skin darkening (in words) [2] | visual skin darkening, 8 WKS + 1 WK [2] | visual skin darkening, 8 WKS + 2 WKS [2] | visual skin darkening, 8 WKS + 3 WKS [2] | Melanin (DRS, arbitrary units) [3] [arbitrary units] | time at which darkening started to fade after termination of topical treatment [2, 5] [days] | time the darkening remained visible after the end of the topical treatment [2, 5] | change of visible skin darkening with routine daily activities (e.g., after water and soap washing) ([2]; during topical treatment) | visual skin darkening, 4 WEEKS ([2]; 1% in ethanol/propylene glycol (70/30), 10 μl twice a day, topical, arm, 4 weeks of treatment) |
| --- | --- | --- | --- | --- | --- | --- | --- | --- | --- | --- | --- | --- |
| Lysophosphatidylcholine [Preparation 2] | 67.69 | + | ++ | induced visible skin darkening | ++ | + | 0 | 1.304 | – | – | – | – |
| lysophosphatidylcholine [LPC] | – | – | – | – | – | – | – | – | 14 to 20 | at least 14 days | did not change | – |
| lysophosphatidylcholine [Preparation 1] | 68.27 | + | ++ | induced visible skin darkening | ++ | + | 0 | 1.274 | – | – | – | ++ |
